Laboratory results: patent US6455714B1, “Labeled vitamin D compounds and the use thereof” (A & D BioScience, Inc., priority 1995, dated 2002)
Where two headings read alike, the source gives them in different places.

Key:
[1] = target: T1, Human Vitamin D-binding Protein (hDBP) (Homo sapiens, UniProt P02774)
T1 sequence (P02774 17-474): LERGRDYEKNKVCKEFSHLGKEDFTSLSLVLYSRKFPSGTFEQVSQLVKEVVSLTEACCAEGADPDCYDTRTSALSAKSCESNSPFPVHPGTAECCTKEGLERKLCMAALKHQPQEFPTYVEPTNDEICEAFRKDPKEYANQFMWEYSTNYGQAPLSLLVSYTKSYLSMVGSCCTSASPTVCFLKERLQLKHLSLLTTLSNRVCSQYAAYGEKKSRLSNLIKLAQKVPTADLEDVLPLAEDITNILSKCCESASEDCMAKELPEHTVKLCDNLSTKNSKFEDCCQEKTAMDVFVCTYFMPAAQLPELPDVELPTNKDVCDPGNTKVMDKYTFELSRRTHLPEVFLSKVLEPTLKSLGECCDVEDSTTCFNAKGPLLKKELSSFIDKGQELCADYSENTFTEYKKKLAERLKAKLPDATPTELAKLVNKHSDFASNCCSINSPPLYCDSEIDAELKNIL
Procedure: Competitive Radioligand Binding Assays of Aanalogs (C) and (F) with Human Vitamin D-binding Protein (hDBP)
These assays were carried out to determine the viability of these synthetic analogs to serve as substrates for hDBP.

DBP [2] = target: T2, DBP (Homo sapiens, UniProt P02774); test: Checkerboard titration (ELISA) of DBP and compound C to obtain a colorimetric signal; format: binding; conditions: with minimum 6.25 ng DBP; color determined visually
T2 construct: purchased Calbiochem, San Diego, Calif
T2 sequence (P02774 17-474): T1 sequence (P02774 17-474)
Procedure: The method involves attachment of DBP to an ELISA plate followed by the addition of a known quantity of 25-OH-D3-biotin conjugate (compound C). […] Excess amount of C is washed off, and an excess of avidin is added which gets bound to biotin attached to 25-OH-D3. The plate is then incubated in sequence with anti-avidin antibody, a secondary antibody coupled to horseradish peroxidase (HRP), and ABTS (2,2′-azino-di-(3-ethylbenzthiazoline)sulfonate, the substrate that produces a […] color which may be monitored spectrophotometrically or visually. The intensity (absorbance) of the color is directly proportional to the concentration of compound C. In the first experiment, the optimal concentrations of DBP and compound C to develop color were determined (visually). In this experiment, each sample of DBP was tested against each amount of compound C.
A. Determination of the Optimal Amount of DBP and Compound (C) in a Checkerboard Titration (ELISA) to obtain a Colorimetric Signal
Add different amounts of purified hDBP (From Calbiochem, San Diego, Calif., in 100 mM Na2CO3 buffer, pH 8.4) to wells of an ELISA plate
Block excess sites with BSA (1 mg/ml, 300 μl)
↓ wash with PBS containing 0.05% TWEEN 20
Add different amounts of C in EtOH
Wash with PBS containing 0.05% TWEEN 20 (Biorad, Richmond, Calif.) […]
Color development detected visually or spectrophotometrically.

DBP [3] = target: T2, DBP; test: ELISA to demonstrate that compound C can be competed out with 25-OH-D3; format: binding; conditions: 2 μg 25-OH-D3 added with C (30, 60, 120 ng); triplicate
Procedure: In the next experiment, it was determined whether it would be possible to displace compound C, bound to DBP (which is attached to an ELISA plate), with a known concentration of 25-OH-D3. In a real sample, one will be measuring the amount of 25-OH-D and not that of compound C.
Procedure: same as before, except either C, or C and 2 μg of 25-OH-D3 were added to each plate. Each concentration (point) was done in triplicate. The blank contained no 25-OH-D3 or C.
Furthermore, the amount of compound C is […] to the concentration of added 25-OH-D3.

Molecule: Biotin conjugate of 25-OH-D3-3-aminopropyl-3-(6-amino) hexanoic acid
- ability to replace 25-OH-D3 for DBP binding ([1]; FIG. 1): can replace 25-OH-D3 for DBP binding

Molecule: C=C1CC[C@H](OCCCNC(=O)CCCCCNC(=O)CCCC[C@@H]2SC[C@@H]3NC(=O)N[C@@H]32)C/C1=C/C=C1\CCC[C@]2(C)[C@@H]([C@H](C)CCCC(C)(C)O)CC[C@@H]12 [C, Conjugate of 25-OH-D3-3-Aminopropyl Ether and Biotin-X-NHS]
- ability to replace 25-OH-D3 for DBP binding [1]: can replace 25-OH-D3 for DBP binding
- times less efficient than 25-OH-D3 in displacing 3H-25-OH-D3 bound to hDBP [1]: ~11 times
- minimum amount required to obtain yellow color (DBP [2]): 30 ng

Molecule: C=C1CC[C@H](O)C/C1=C/C=C1\CCC[C@]2(C)[C@@H]([C@H](C)CCCC(C)(C)O)CC[C@@H]12 [Compound 25-OH-D3, 25-hydroxyvitamin D3]
- displacement of compound C bound to DBP on an ELISA plate (color development) (DBP [3]): capable of displacing compound C bound to DBP
